pEC50, pIC50: −log10 of the molar value. Activity calls are given as the source filed them.

Here are results for 15 molecules from ChEMBL document CHEMBL1154530, “Pyridyl-pyrimidine benzimidazole derivatives as potent, selective, and orally bioavailable inhibitors of Tie-2 kinase” (Bioorg Med Chem Lett, 2009).

The target in series [1] is Vascular endothelial growth factor receptor 2 (Homo sapiens, UniProt P35968). The series can be described thus: Inhibition of KDR.
Series [2] concerns the target T1, Angiopoietin-1 receptor (Homo sapiens, UniProt Q02763). The series can be described thus: Inhibition of Tie2.
Series [3] concerns Mus musculus. The series can be described thus: Inhibition of human angiopoietin-1-stimulated Tie2 phosphorylation in po dosed mouse lung tissue model. It counts as functional, organism-based.
The next series concerns the target T2, Aurora kinase A (Homo sapiens, UniProt O14965).
T2 sequence (O14965 whole entry): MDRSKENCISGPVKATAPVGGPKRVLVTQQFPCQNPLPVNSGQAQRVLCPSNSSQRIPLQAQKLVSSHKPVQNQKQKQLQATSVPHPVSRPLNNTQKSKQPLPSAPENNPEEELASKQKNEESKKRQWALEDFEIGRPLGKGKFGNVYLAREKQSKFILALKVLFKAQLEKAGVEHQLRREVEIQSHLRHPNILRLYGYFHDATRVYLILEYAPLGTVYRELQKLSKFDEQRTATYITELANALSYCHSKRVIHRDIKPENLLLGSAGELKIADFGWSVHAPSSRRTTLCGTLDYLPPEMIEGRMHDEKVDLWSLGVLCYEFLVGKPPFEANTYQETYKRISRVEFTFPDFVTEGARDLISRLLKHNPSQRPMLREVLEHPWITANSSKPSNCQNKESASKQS
The experiment in a line: Inhibition of Aurora A.

Series [4] is described as follows: Inhibition of Aurora kinase in human HeLa cells assessed as induction of >=4N DNA content. In kind it is cell-based.
The target of another series is Aurora kinase B (Homo sapiens, UniProt Q96GD4). The experiment in a line: Inhibition of Aurora B.
Chain of Aurora kinase B (Q96GD4 whole entry): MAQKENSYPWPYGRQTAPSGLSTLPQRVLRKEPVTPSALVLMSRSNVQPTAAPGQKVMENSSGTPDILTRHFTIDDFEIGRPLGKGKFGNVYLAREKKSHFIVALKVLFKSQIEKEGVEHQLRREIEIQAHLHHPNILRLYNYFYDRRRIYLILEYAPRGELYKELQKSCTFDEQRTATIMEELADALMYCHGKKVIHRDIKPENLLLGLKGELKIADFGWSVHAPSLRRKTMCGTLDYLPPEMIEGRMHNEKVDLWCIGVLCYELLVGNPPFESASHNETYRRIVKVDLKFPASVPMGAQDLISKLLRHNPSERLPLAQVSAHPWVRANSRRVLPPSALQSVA
Series [5] deals with Mus musculus. The experiment in a line: Inhibition of human angiopoietin-1-stimulated Tie2 phosphorylation in mouse lung tissue model at 10 mg/kg, po. It counts as functional. On the set-up: scale not given: the % may be the effect or the level left.
Series [6] is described as follows: Protein binding in mouse plasma. Particulars: read-out: PPB (converted). In kind it is ADME, cell-free.
A short description of series [7]: Oral bioavailability in Sprague-Dawley rat at 5 mg/kg. It counts as ADME, organism-based. Conditions: in vivo.
Series [8] relates to Mus musculus. The series can be described thus: Plasma concentration in mouse at 10 mg/kg, po. On the set-up: dose 10 mg/kg, route oral. In kind it is ADME, organism-based. Particulars: in vivo.
Series [9] in a line: Half life in Sprague-Dawley rat at 0.5 mg/kg, iv. Conditions: in vivo. Set-up: dose 0.5 mg/kg, route intravenous. In kind it is ADME, organism-based.
Another series concerns Plasma. The series can be described thus: Unbound concentration in mouse plasma.
The nature of series [10]: Volume of distribution at steady state in Sprague-Dawley rat at 0.5 mg/kg, iv. In kind it is ADME, organism-based. On the set-up: dose 0.5 mg/kg, route intravenous. Particulars: in vivo, read-out: Vdss.
Series [11] relates to Mus musculus. The series can be described thus: Inhibition of human angiopoietin-1-stimulated Tie2 phosphorylation in mouse lung tissue model at >=30 mg/kg, po. It counts as functional, organism-based.
Series [12] can be described thus: Clearance in Sprague-Dawley rat at 0.5 mg/kg, iv. It counts as ADME, organism-based. Set-up: dose 0.5 mg/kg, route intravenous. Particulars: in vivo.
Series [13] has as its target T1, Angiopoietin-1 receptor. The series can be described thus: Inhibition of Tie2 autophosphorylation in human Ea.hy926 cells. It counts as cell-based.
Series [14] in a line: Inhibition of JNK.

T1 sequence (Q02763 whole entry): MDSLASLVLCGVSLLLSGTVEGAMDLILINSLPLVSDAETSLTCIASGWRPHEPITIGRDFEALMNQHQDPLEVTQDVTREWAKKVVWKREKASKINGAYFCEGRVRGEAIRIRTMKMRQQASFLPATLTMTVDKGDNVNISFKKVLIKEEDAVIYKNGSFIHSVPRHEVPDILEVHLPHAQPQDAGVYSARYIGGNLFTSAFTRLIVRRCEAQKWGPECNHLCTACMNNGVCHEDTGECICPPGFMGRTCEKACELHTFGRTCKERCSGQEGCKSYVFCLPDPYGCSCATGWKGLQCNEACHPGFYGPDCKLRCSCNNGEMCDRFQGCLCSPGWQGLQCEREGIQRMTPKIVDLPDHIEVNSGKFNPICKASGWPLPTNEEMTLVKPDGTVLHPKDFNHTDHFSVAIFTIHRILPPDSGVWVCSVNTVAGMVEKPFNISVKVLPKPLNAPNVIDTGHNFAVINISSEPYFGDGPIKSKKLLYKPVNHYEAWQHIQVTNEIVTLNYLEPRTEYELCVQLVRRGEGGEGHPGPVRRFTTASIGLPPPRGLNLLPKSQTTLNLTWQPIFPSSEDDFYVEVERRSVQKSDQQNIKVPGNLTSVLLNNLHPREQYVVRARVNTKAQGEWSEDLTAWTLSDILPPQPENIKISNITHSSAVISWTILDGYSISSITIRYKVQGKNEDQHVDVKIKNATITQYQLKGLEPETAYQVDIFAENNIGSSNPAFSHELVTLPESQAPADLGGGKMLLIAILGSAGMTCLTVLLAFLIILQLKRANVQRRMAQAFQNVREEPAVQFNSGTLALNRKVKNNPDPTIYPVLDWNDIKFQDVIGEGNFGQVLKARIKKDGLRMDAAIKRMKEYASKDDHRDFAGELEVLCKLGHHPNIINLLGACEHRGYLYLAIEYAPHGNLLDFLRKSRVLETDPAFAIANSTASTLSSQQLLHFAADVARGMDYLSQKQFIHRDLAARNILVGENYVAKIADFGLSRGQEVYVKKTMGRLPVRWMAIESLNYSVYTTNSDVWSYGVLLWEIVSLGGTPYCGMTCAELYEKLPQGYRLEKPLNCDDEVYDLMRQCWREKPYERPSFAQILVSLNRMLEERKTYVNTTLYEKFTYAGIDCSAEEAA
Chain of Vascular endothelial growth factor receptor 2 (P35968 whole entry): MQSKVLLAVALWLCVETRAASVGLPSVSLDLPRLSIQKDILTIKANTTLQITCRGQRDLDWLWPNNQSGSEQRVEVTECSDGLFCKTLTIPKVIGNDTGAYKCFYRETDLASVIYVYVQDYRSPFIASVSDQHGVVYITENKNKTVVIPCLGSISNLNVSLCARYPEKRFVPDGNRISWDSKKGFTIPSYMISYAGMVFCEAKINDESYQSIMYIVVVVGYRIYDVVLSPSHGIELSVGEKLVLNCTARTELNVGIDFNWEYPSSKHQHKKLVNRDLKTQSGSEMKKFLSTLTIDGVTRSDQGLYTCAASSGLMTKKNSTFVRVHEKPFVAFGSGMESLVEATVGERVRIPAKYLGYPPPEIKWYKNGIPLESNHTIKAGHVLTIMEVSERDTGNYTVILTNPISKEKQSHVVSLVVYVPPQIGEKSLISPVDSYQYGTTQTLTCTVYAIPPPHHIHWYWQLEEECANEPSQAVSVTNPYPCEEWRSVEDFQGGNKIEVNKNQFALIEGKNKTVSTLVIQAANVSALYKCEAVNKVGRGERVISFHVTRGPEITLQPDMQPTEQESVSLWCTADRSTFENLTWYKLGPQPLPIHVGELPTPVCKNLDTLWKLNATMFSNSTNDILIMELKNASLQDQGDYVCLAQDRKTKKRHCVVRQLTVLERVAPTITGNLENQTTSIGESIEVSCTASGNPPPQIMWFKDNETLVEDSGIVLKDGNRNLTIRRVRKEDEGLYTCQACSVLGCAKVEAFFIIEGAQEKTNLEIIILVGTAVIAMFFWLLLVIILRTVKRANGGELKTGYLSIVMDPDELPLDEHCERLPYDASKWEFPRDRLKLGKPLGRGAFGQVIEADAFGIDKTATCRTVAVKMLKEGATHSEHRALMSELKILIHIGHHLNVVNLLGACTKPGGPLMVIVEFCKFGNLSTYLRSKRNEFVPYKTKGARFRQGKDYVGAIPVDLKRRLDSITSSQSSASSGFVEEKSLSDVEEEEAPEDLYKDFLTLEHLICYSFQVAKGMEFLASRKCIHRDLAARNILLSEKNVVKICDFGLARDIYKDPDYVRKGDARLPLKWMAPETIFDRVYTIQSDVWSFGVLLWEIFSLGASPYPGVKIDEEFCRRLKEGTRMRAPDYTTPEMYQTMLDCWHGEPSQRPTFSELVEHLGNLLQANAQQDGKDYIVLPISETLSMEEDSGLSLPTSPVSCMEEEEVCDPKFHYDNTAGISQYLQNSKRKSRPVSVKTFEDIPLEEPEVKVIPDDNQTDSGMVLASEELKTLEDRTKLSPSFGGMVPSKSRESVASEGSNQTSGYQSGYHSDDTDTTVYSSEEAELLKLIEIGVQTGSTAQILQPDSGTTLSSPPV

Regarding `CNc1nccc(-c2cccnc2Oc2ccc(Nc3nc4ccccc4[nH]3)c(C)c2)n1`, the pIC50 (in general, −log10 of the IC50, conventionally taken in molar units) in [1] is below 4.60; on Angiopoietin-1 receptor [2] it was 6.23.
For the molecule `CNc1nccc(-c2cccnc2Oc2ccc(NC(=O)Nc3ccccc3)cc2C)n1`, the pIC50 in series [1] was 5.12; against Angiopoietin-1 receptor [2], 6.34.
For `CNc1nccc(-c2cccnc2Oc2ccc(Nc3nc4cc(C(F)(F)F)ccc4[nH]3)c3ccccc23)n1`, the negative-log IC50 (pIC50) in [1] was 7.16; against Angiopoietin-1 receptor [2], 7.57.
Taken in the same sequence, the figures for `CNc1nccc(-c2cccnc2Oc2ccc(Nc3nc4ccccc4[nH]3)c(C)c2C)n1` were below 4.60 and 6.51.
Take `CNc1nccc(-c2cccnc2Oc2ccc(Nc3nc4ccccc4[nH]3)cc2)n1`: the pIC50 is below 4.60 in series [1] and 6.60 at Angiopoietin-1 receptor [2].
As to `CNc1nccc(-c2cccnc2Oc2ccc(Nc3nc4ccccc4n3C)c3ccccc23)n1`, the negative logarithm of the IC50 (pIC50) in series [1] was 6.60; against Angiopoietin-1 receptor [2], 6.62.
Regarding `CNc1nccc(-c2cccnc2Oc2ccc(Nc3nc4ccc(C(F)(F)F)cc4[nH]3)cc2C)n1`, the values for the pIC50 (in series [1]; against Angiopoietin-1 receptor [2]) were 5.22 and 6.33, respectively.
Regarding `CNc1nccc(-c2cccnc2Oc2c(C)cc(Nc3nc4ccccc4[nH]3)c3ccccc23)n1`, the Activity result with Mus musculus [3] was “Dose-dependent effect”; in the series on Mus musculus [5], 50%. For the same molecule, the pIC50 against Aurora kinase A was 7.55; in [1], below 5.30; in series [4], below 5.92; on Aurora kinase B, 7.10. The fraction unbound in series [6] was 0.004. The bioavailability (usually the share of a dose that reaches the circulation, judged against a reference dose that is usually intravenous) in series [7] turned out to be 26%. This molecule also gave a concentration in the series with Mus musculus [8] of 260 nM. Further, the half-life (in general, the time needed for the level to fall by half in the phase considered) in series [9] was 3.7 h. Further, the unbound plasma concentration in the series with Plasma was found to be 1 nM. The Vd in series [10] amounted to 5.9 L/kg. The result with Mus musculus [11] was Active. Also, in series [12], the clearance – broadly, the volume of plasma or blood freed of the substance per unit of time – worked out at 28 mL/min/kg.
`CNc1nccc(-c2cccnc2Oc2ccc(Nc3nc4ccccc4[nH]3)c3ccccc23)n1`: the pIC50 at Angiopoietin-1 receptor [13] is 7.70; at Aurora kinase A, 7.72; in series [1] it was 5.85; in series [4] it was 6.92; on Angiopoietin-1 receptor [2], 9.00; on Aurora kinase B it was 8.00. The pEC50 – broadly, the negative decadic logarithm of the EC50, by convention in mol/L – in series [14] was above 7.00.
As for `CNc1nccc(-c2cccnc2Oc2ccc(NC(=O)Nc3ccccc3)c3ccccc23)n1`, the pIC50 is 7.40 in [1] and 8.30 against Angiopoietin-1 receptor [2].
Regarding `CNc1nccc(-c2cccnc2Oc2ccc(Nc3nc4ccccc4[nH]3)cc2C)n1`, the negative logarithm of the IC50 (pIC50) against Angiopoietin-1 receptor [13] is 6.60; in series [1] it was below 4.60; at Angiopoietin-1 receptor [2], 7.64.
For `CNc1nccc(-c2cccnc2Oc2ccc(Nc3nc4ccccc4s3)c3ccccc23)n1`, the pIC50 is 7.06 in series [1] and 7.36 against Angiopoietin-1 receptor [2].
Regarding `CNc1nccc(-c2cccnc2Oc2ccc(NC(=O)Nc3cccc(C(F)(F)F)c3)cc2C)n1`, in series [1], the pIC50 was 7.47.
For the molecule `CNc1nccc(-c2cccnc2Oc2ccc(Nc3nc4c(C)cccc4[nH]3)c3ccccc23)n1`, the figures for the pIC50 (in series [1]; against Angiopoietin-1 receptor [2]) were 5.80 and 6.96, respectively.
On to `CNc1nccc(-c2cccnc2Oc2ccc(Nc3nc4ccccc4o3)c3ccccc23)n1`, for which the negative-log IC50 (pIC50) in [1] was 7.52; on Angiopoietin-1 receptor [2], 7.80.
